Test results as given in patent US10729810B2, “Methods, systems, and compositions for promoting bone growth” (Cayman Chemical Company, Inc., priority 2013, dated 2020).
Blank lines part the entries; values can stand above or below the molecule they belong to.

What was measured:
[1] = target: T1, Human Prostanoid EP4 Receptor (Homo sapiens, UniProt P35408); test: Radioligand binding assay, agonist site of human prostanoid EP4 receptor in transfected HEK-293 cells; conditions: for hEP4 receptor binding, % @100: @100, printed in the IC50 (nM) column
T1 construct: expressed in transfected cells; host or cells: HEK-293 cells (membrane homogenates)
T1 sequence (P35408 whole entry): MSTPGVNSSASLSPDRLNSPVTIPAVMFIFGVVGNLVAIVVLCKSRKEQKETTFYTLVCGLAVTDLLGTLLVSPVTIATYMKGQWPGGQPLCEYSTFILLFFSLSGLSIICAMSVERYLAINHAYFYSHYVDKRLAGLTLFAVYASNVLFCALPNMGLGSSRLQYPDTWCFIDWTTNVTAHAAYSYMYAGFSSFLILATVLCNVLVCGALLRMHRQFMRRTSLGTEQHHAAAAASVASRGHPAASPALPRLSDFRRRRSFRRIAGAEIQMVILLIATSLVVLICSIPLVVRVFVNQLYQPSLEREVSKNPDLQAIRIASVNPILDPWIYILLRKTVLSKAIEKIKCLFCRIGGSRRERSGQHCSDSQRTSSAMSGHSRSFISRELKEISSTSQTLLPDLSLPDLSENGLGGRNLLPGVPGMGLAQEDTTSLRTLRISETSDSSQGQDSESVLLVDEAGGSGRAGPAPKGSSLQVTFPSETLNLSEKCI
Description: Radioligand Binding Assay for the Evaluation of the Affinity of Compounds for the Agonist Site of the Human Prostanoid EP4 Receptor in Transfected HEK-293 Cells
Following incubation, the samples are filtered rapidly under vacuum through glass fiber filters (GF/B, Packard) presoaked with 0.3% PEI and rinsed several times with ice-cold 50 mM Tris-HCl using a 96-sample cell harvester (Unifilter, Packard). The filters are dried then counted for radioactivity in a scintillation counter (Topcount, Packard) using a scintillation cocktail (Microscint 0, Packard).

rat calvarial defect [2] = test: Rat calvarial defect model, drug in calcium phosphate cement suspended in demineralized bone matrix putty; assay type: in vivo, female Sprague Dawley rats; conditions: 2.6 mm defect, eight weeks
Description: The rat calvarial defect model is a widely used model through which the ability of a treatment agent to induce bone formation is assessed (Aghaloo et al., The effect of NELL1 and bone morphogenetic protein-2 on calvarial bone regeneration, J. Oral Maxillofac. Surg. 2010: 68:300-308; Mark et al., Repair of calvarial nonunions by osteogenin, a bone-inductive protein, Plast. Reconstr. Surg. 1990: 86:623-30).
Bone defects are created by removal of bone from the cranium of female Sprague Dawley rats by a bone trephine (cranial defect). Cranial defects are 2.6 mm in diameter and the cranium approximately 1 mm thick. A matrix of approximately 2 mm thickness is applied to the defect. Thus the dosing volume for each defect is calculated as π*r^2*matrix thickness=3.14*1.3^2*2=10.61 μl and rounded to 11 μl for purposes of dose calculation.
EXAMPLE 2C is tested at seven doses with five rats in each group. These are 3, 10, 30, 100 and 300 μg/ml and 1 and 3 mg/ml. A negative control group treated with dosing matrix containing no drug (Vehicle) as well as a positive control group treated with 50 μg/ml recombinant human bone morphogenetic protein 2 (BMP-2) are also included in the study. […]
The area measured each week is compared to that of the first week and the degree of repair calculated by the following formula: (original area−current area)/original area*100 […]

rat calvarial defect [3] = test: Rat calvarial defect model, drug-cement loaded into intact demineralized bone matrix; assay type: in vivo, female Sprague Dawley rats; conditions: 5.0 mm defect; 10 mg/gm of cement; four weeks; FIG. 4
Description: Bone defects are created by removal of bone from the cranium of female Sprague Dawley rats by a bone trephine (cranial defect). Cranial defects are 5.0 mm in diameter and the cranium approximately 1 mm thick.
EXAMPLE 2E′ is delivered inside calcium phosphate cement that, after loading with drug set inside three voids each of approximately 1.0 mm in diameter drilled into a solid demineralized bone matrix circular block of 5.0 mm in diameter and 1 mm thickness. EXAMPLE 2E′ is tested at 10 mg/gm of cement. A negative control group treated with dosing matrix containing no drug (Vehicle) is also included in the study.
Dosing solutions are made from a 5 mg/ml EXAMPLE 2E′ stock which is made by dissolving 2.08 mg of neat EXAMPLE 2E′ in 416 μl of 100% ethanol.
The volume of each dosing void is π*r^2*matrix thickness=3.14*0.5^2*1=0.8 μl. Thus a 5 mm solid demineralized matrix with three voids filled with cement contains 2.4 μl of loading cement. The cement that is used weighs 107 mg for 100 μl volume. Thus 2.4 ul of volume is occupied by 2.6 mg of cement. A 10 mg/gm dosing cement provides 26 ug of EXAMPLE 2E′ for each 5 mm intact demineralized bone matrix block. […]
The area measured each week is compared to that of the first week and the degree of repair calculated by the following formula: (original area−current area)/original area*100

osteoporotic femur = test: Bone density of osteoporotic femur after osteotomy with drug-cement insert in ovariectomized rats; assay type: in vivo, Female Sprague Dawley rats
Description: Dosing solutions are made from a 5 mg/ml Example 2E' stock which is made by dissolving 2.08 mg of neat Example 2E' in 416 μl of 100% ethanol. The dosing solution for Example 2E' was made by adding 44.4 μL of the 5 mg/ml stock to 22.2 mg of calcium phosphate cement powder. The Vehicle dosing solution was made by adding 50.4 μl of ethanol containing no Example 2E' to 25.2 mg of calcium phosphate cement powder. After the ethanol has been vented off, the cement is wetted with a setting solution and mixed thoroughly for 1 minute as the cement begins to set. The cement is separated into five aliquots and placed on a glass microscope slide. […] After obtaining the CT image the cross sectional density of the bone 3 mm dorsal to the implant site is measured in three places and the measurements averaged. The density of the phantom is measured at the same time and is compared to the phantom measurement on week 0. […] For example the density of the femur of a vehicle treated rat imaged on week 0 is measured at 3028, 3597 and 3329 units (average=3318) and the phantom measured 4209 units. […] The relative density on bone at week 3 compared to week 0 is then calculated as: average week 3normalized/average week 0*100=3378/3318*100=101.8% The mean change in bone density of both groups after three weeks of treatment is shown in FIG. 5. […]

SMILES: C[C@@H](CCCc1ccccc1)[C@H](O)/C=C/[C@H]1CC(F)(F)C(=O)N1CCCCCCC(=O)O [Example 6D, 7-((R)-3,3-difluoro-5-((3S,4S,E)-3-hydroxy-4-methyl-7-phenylhept-1-en-1-yl)-2-oxopyrrolidin-1-yl)heptanoic acid]
- IC50 ([1]; 0.5 nM [3H]PGE2, HEK-293 cell membrane homogenates, read-out: hEP4 receptor binding (nM) IC50): 2.4 nM
- Ki ([1]; 0.5 nM [3H]PGE2, HEK-293 cell membrane homogenates, read-out: hEP4 receptor binding (nM) Ki): 0.89 nM

SMILES: CCC#CC[C@H](C)[C@H](O)/C=C/[C@H]1CC(F)(F)C(=O)N1CCCCCCC(=O)O [Example 2C, 7-((R)-3,3-difluoro-5-((3S,4S,E)-3-hydroxy-4-methylnon-1-en-6-yn-1-yl)-2-oxopyrrolidin-1-yl)heptanoic acid]
- Healing of a calvarial bone defect (rat calvarial defect [2]; 3 μg/ml to 3 mg/ml in cement-DBM putty 1:8, FIG. 1): Accelerated Healing

SMILES: CCC#CC[C@H](C)[C@H](O)/C=C/[C@H]1CCC(=O)N1CCCCCCC(=O)O [2E′, 7-((R)-2-((3S,4S,E)-3-hydroxy-4-methylnon-1-en-6-yn-1-yl)-5-oxopyrrolidin-1-yl)heptanoic acid]
- Healing of a calvarial bone defect (rat calvarial defect [2]; 3 mg/ml in cement-DBM putty 1:8, FIG. 2): Accelerated Healing
- Healing of a calvarial bone defect, loaded into intact demineralized bone matrix (rat calvarial defect [3]): Accelerated Healing
- Bone density of osteoporotic femur (osteoporotic femur; 10 mg/gm cement insert, three weeks, FIG. 5): Increased Bone Density

SMILES: C[C@@H](CCCc1ccccc1)[C@H](O)/C=C/[C@H]1CC(F)(F)C(=O)N1CCCc1ccc(C(=O)O)s1 [Example 28C, 5-(3-((R)-3,3-difluoro-5-((3S,4S,E)-3-hydroxy-4-methyl-7-phenylhept-1-en-1-yl)-2-oxopyrrolidin-1-yl)propyl)thiophene-2-carboxylic acid]
- Bone density of osteoporotic femur (osteoporotic femur; 100 μg/gm or 300 μg/gm cement insert, twenty weeks, FIG. 6): Increased Bone Density

Results, then the molecule that gave them:

- hEP4 receptor binding, % @100 [1]: 11% @100
SMILES: CC#CCC(C)[C@@H](O)/C=C/[C@H]1CCC(=O)N1CCCCCCC(=O)O (mixture of isomers) [Example 1D′, 7-((2R)-2-((3R,4R/S,E)-3-hydroxy-4-methyloct-1-en-6-yn-1-yl)-5-oxopyrrolidin-1-yl)heptanoic acid]

- hEP4 receptor binding, % @100 [1]: 86% @100
SMILES: CC#CCC(C)[C@H](O)/C=C/[C@H]1CCC(=O)N1CCCCCCC(=O)O (mixture of isomers) [Example 1C′, 7-((2R)-2-((3S,4R/S,E)-3-hydroxy-4-methyloct-1-en-6-yn-1-yl)-5-oxopyrrolidin-1-yl)heptanoic acid]

- melting point: 104 to 105 °C
SMILES: CCCC#CCC(C)[C@H](O)/C=C/[C@H]1CCC(=O)N1CCCCCCC(=O)O (mixture of isomers) [3C′, 7-((2R)-2-((3S,4R/S,E)-3-hydroxy-4-methyldec-1-en-6-yn-1-yl)-5-oxopyrrolidin-1-yl)heptanoic acid]
